Data reported in patent publication US20240189408A1, “COMPOSITIONS AND METHODS FOR REDUCING METHANE EMISSIONS IN RUMINANT POPULATIONS” (Arkea Bio Corp., priority 2022, published 2024).
Where “and” joins values, the source holds several entries; their conditions need not be identical. Identical values can stand only once. Like-named read-outs stand apart in the source and are kept apart here.

Experiments:
Methanomicrobium mobile = conditions: cited from earlier work
Mbb. Ruminantium = conditions: cited from earlier work
Methanosarcina mazei = conditions: cited from earlier work
[1] = Adsorbent study: binding affinity and adsorptive capacity for 3-NOP, HPLC at 230 nm
Experimental: The solution was then placed in an ultrasonic bath for ˜4 hr and then allowed to equilibrate over 24h.

[2] = 3-NOP to adsorbent ratio study; format: physicochemical; conditions: 24 hr, HPLC
Experimental: Optimal loading of 3-NOP onto adsorbents was determined by varying ratios of 3-NOP to adsorbent. 3-NOP and adsorbent were speed mixed at 2000 rpm for 1 min at the following ratios by weight: 1:1.5, 1:2, 1:2.5. The adsorbed 3-NOP powder mixture was then placed in distilled water at 1% 3-NOP loading. The solution was allowed to equilibrate for 24 hr and then an aliquot was taken for HPLC to determine the reduction in 3-NOP concentration.

rumen methanogens [3] = conditions: cited from earlier work
[4] = system: methane production in ruminants; conditions: 10 mmol/L; cited from earlier work
rumen methanogens [5] = conditions: sheep, cited from earlier work
[6] = LNP encapsulation efficiency, RiboGreen assay; format: physicochemical
Outline: (§1)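 LNPs were made from mRNA at 0.35 mg/mL with Genvoy-ILM on a NanoAssemblr Ignite, dialysed into Ca/Mg-free DPBS to <0.5% ethanol and 0.2 µm filtered. Size and polydispersity were measured by DLS after 1:10 dilution in DPBS. Encapsulation efficiency was determined by RiboGreen assay per Precision Nanosystems protocol.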

total IgG = experiment: Total sera IgG by radial immunodiffusion after IM or SQ vaccination with OVA mRNA LNPs; format: in vivo, dairy cows; conditions: for Serum IgG Concentration: one line per animal replicate
Experimental: (§2) Bovine nucleic acid vaccination protocols (SQ and IM) were assessed in vivo in the dairy cows through the quantification of the adaptive immune response following inoculation with ovalbumin (OVA). Immune response was assessed by quantifying total IgG and OVA-specific IgG over a 28-day period after vaccination. Both SQ and IM vaccination provided a robust immune response, with IM vaccination providing a higher total immune response than SQ vaccination.
(§3) Dairy cows were dried off for a period of eight days prior to vaccination. Each vaccine formulation was administered either by IM or SQ injection to three animals. In total, 15 animals were vaccinated with LNPs containing mRNA and 6 animals were vaccinated with empty LNPs. Intramuscular injections were delivered into the cow's right neck muscle by veterinary-trained staff using an 18-gauge 1-1.5″ needle. Subcutaneous injections were delivered into the cow's right shoulder by veterinary-trained staff using an 18-gauge 0.5-0.75″ needle. Total blood samples (˜20 mL) were collected by veterinary-trained staff. Samples were collected into 10 mL vacutainer tubes (2×10 mL) from the coccygeal vein (tail vein) by needle puncture. Harvested blood samples were then processed via ultracentrifugation for serum collection. Isolated serum samples were aliquoted, labeled and stored in cryogenic tubes at −20° C. until use.
Sera samples were thawed on ice and total IgG was quantified using Triple J Farms' Ig Radial Immunodiffusion (RID) kits (Cat No. 728411) following the manufacturers recommended protocol.

[7] = LNP size and polydispersity by DLS (Malvern Panalytical); format: physicochemical
Outline: as §1

ovalbumin (OVA) = experiment: OVA-specific IgG ELISA of sera after IM or SQ vaccination; format: in vivo, dairy cows; conditions: for OVA-specific IgG, Absorbance (OD450): one line per animal replicate
Experimental: as §2, §3
Sera samples were thawed on ice and total IgG was quantified using NovateinBio's Bovine OVA sIgG Antibody ELISA Kit (Cat No. BG-BVN11731) following the manufacturer's recommended protocol. Each of the animals vaccinated with a construct show a demonstrable OVA-specific IgG response over the 28-day test period.

[8] = 0.2 g of adsorbent in 10 mL of 1% 3-NOP/H2O, after 24h, control 8.258 mM
[9] = 0.06 to 0.24 mmol/L, dose-dependent

3-bromopropanesulfonate [BPS]
concentration up to which the species appeared resistant (Methanomicrobium mobile; pure cultures): 250 µmol/L | concentration up to which the species appeared resistant (Mbb. Ruminantium; pure cultures): 250 µmol/L | concentration up to which the species appeared resistant (Methanosarcina mazei; pure cultures): 250 µmol/L

O=S(=O)([O-])CCBr.[Na+] [BES, 2-bromoethanesulfonate]
sensitivity to the inhibitor, ranking of three species (Methanomicrobium mobile; pure cultures): intermediate | sensitivity to the inhibitor, ranking of three species (Mbb. Ruminantium; pure cultures): most sensitive | sensitivity to the inhibitor, ranking of three species (Methanosarcina mazei; pure cultures): least sensitive

C[N+](C)(C)CC(=O)O [Betaine]
3-NOP concentration [1, 8]: 7.202 mM

O=C([O-])CC(O)(CC(=O)[O-])C(=O)[O-].[Bi+3] [Bismuth Citrate]
3-NOP concentration [1, 8]: 8.072 mM

O=S(=O)([O-])[O-].O=S(=O)([O-])[O-].O=S(=O)([O-])[O-].[Bi+3].[Bi+3] [Bismuth Sulfate]
3-NOP concentration [1, 8]: 8.079 mM

O=S(=O)([O-])[O-].[Cu+2] [Copper Sulfate]
3-NOP concentration [1, 8]: 7.814 mM

NC(=O)CC[C@H](N)C(=O)O [Glutamine]
3-NOP concentration [1, 8]: 7.588 mM

NCCCC[C@H](N)C(=O)O [Lysine]
Average Integrated Area of 3-NOP in solution ([2]; 3-NOP:Adsorbent 1:1.5, distilled water at 1% 3-NOP loading): 2336.2 | Average Integrated Area of 3-NOP in solution ([2]; 3-NOP:Adsorbent 1:2, distilled water at 1% 3-NOP loading): 2308.9 | Average Integrated Area of 3-NOP in solution ([2]; 3-NOP:Adsorbent 1:2.5, distilled water at 1% 3-NOP loading): 2266.6 | 3-NOP concentration [1]: 18.583 mM

CC#CC(=O)OCC [ethyl 2-butynoate]
sensitivity to the inhibitor, ranking of three species (Methanomicrobium mobile; pure cultures): intermediate | sensitivity to the inhibitor, ranking of three species (Mbb. Ruminantium; pure cultures): most sensitive | sensitivity to the inhibitor, ranking of three species (Methanosarcina mazei; pure cultures): least sensitive

CC[C@H](C)C(=O)O[C@H]1C[C@@H](C)C=C2C=C[C@H](C)[C@H](CC[C@@H]3C[C@@H](O)CC(=O)O3)[C@H]21 [lovastatin]
reduction of total CH4 production by rumen methanogens (rumen methanogens [3]; extracted from fermented rice straw, after 48 h in vitro incubation): ~28% | reduction of CH4 production (rumen methanogens [3]; rumen simulation technique (Rusitec), 150 mg/L): approximately 42%

O=c1[nH]c(=O)c2nccnc2[nH]1 [lumazin, 2,4-pteridinedione]
CH4 production (Methanomicrobium mobile; [9]): significantly decreased | CH4 production (Mbb. Ruminantium; [9]): significantly decreased | CH4 production (Methanosarcina mazei; [9]): significantly decreased

CC[N+](=O)[O-] [nitroethane]
Addition amount; maximum methane suppression amount [4]: 10 mmol/L; 96.7% (NE), | decrease of CH4 production (rumen methanogens [5]; orally 24 mg/kg body weight daily for 5 days): up to 45% | decrease of CH4 production (rumen methanogens [5]; orally 72 mg/kg body weight daily for 5 days): ≤ 69%

C#CC(=O)O [propynoic acid]
sensitivity to the inhibitor, ranking of three species (Methanomicrobium mobile; pure cultures): intermediate | lowering of CH4 production (rumen methanogens [3]; 6 mmol/L): 67% | lowering of CH4 production (rumen methanogens [3]; 12 mmol/L): 78% | sensitivity to the inhibitor, ranking of three species (Mbb. Ruminantium; pure cultures): most sensitive | sensitivity to the inhibitor, ranking of three species (Methanosarcina mazei; pure cultures): least sensitive

Bovicin HC5
suppression of CH4 in vitro (rumen methanogens [3]): 50%

Catechin
CH4 production (rumen methanogens [3]): decreased CH4 production both in vitro and in vivo

Cyclodextrin
3-NOP concentration [1, 8]: 7.676 mM

Nisin
suppression of CH4 in vitro (rumen methanogens [3]): up to 40%

B1: ARK015: mRNA: OVA + STOP, cytosolic OVA; SEQ ID NO: 16675 (nucleic acid)
chain: ATGTTCGTGTTCCTCGTGCTCCTGCCCCTCGTCTCCAGCCAGTGCGTGGGGTCCATAGGGGCTGCTTCTATGGAGTTCTGTTTTGATGTTTTCAAGGAACTGAAGGTTCACCATGCTAACGAGAACATCTTTTACTGTCCAATAGCCATCATGAGTGCGCTTGCTATGGTTTATTTGGGTGCAAAAGATTCTACTCGCACTCAGATTAATAAGGTCGTTAGATTCGACAAGCTTCCAGGGTTTGGAGACAGTATTGAGGCCCAATGTGGAACGTCAGTCAACGTCCATTCTTCTCTGCGGGACATTCTCAACCAAATAACGAAGCCAAACGACGTGTATTCCTTCTCACTCGCGTCACGGCTGTATGCTGAAGAAAGGTATCCTATCTTGCCAGAATATCTCCAGTGCGTCAAGGAGTTGTATCGAGGCGGACTGGAACCGATCAACTTTCAGACTGCAGCCGACCAGGCCCGCGAACTGATCAACAGCTGGGTCGAGTCTCAGACCAATGGGATCATACGCAATGTGTTGCAACCGAGTAGTGTCGACTCTCAGACGGCTATGGTCTTGGTGAACGCTATAGTCTTCAAAGGTCTGTGGGAGAAGACCTTCAAGGATGAAGACACACAAGCGATGCCATTCAGAGTCACCGAACAAGAAAGCAAACCCGTCCAAATGATGTACCAAATTGGGCTTTTTCGGGTGGCCTCTATGGCCTCTGAGAAAATGAAAATATTGGAACTGCCCTTCGCCAGCGGCACAATGAGTATGTTGGTCCTTCTTCCAGATGAAGTCTCAGGTCTCGAACAGCTTGAGTCTATCATTAACTTTGAGAAACTCACTGAATGGACTTCTTCCAATGTGATGGAAGAACGAAAAATCAAAGTCTACCTGCCCCGAATGAAGATGGAAGAGAAATATAATTTGACATCAGTTCTGATGGCCATGGGAATCACAGACGTGTTTTCATCCTCTGCGAATCTGTCTGGCATATCTTCCGCAGAATCTCTCAAGATCAGTCAAGCCGTCCACGCGGCCCATGCTGAGATAAATGAGGCGGGCAGAGAGGTGGTGGGGTCCGCCGAAGCTGGAGTCGACGCAGCTTCTGTCAGTGAAGAATTTAGGGCCGATCATCCTTTCCTGTTCTGCATAAAGCACATAGCTACGAACGCTGTGCTTTTCTTTGGCAGATGCGTTTCTCCATGA
modifications: listed as DNA
Encapsulation efficiency ([6]; mRNA LNPs of Table 18): 62% | Encapsulation efficiency ([6]; mRNA LNPs, Example 6): 84% | Serum IgG Concentration (total IgG; IM injection, Day 0, dairy cows, dose 348-468 ug): 3,658 mg/dL and 4,086 mg/dL and 3,167 mg/dL | Serum IgG Concentration (total IgG; IM injection, Day 14, dairy cows, dose 348-468 ug): 3,692 mg/dL and 5,735 mg/dL and 3,947 mg/dL | Serum IgG Concentration (total IgG; IM injection, Day 21, dairy cows, dose 348-468 ug): 4,070 mg/dL and 2,488 mg/dL and 3,797 mg/dL | Serum IgG Concentration (total IgG; IM injection, Day 28, dairy cows, dose 348-468 ug): 3,272 mg/dL and 4,153 mg/dL and 2,723 mg/dL | Serum IgG Concentration (total IgG; SQ injection, Day 0, dairy cows, dose 353-468 ug): 4,875 mg/dL and 3,680 mg/dL and 2,964 mg/dL | Serum IgG Concentration (total IgG; SQ injection, Day 14, dairy cows, dose 353-468 ug): 5,972 mg/dL and 3,257 mg/dL and 3,894 mg/dL | Serum IgG Concentration (total IgG; SQ injection, Day 21, dairy cows, dose 353-468 ug): 5,722 mg/dL and 3,149 mg/dL and 3,981 mg/dL | Serum IgG Concentration (total IgG; SQ injection, Day 28, dairy cows, dose 353-468 ug): 4,015 mg/dL and 3,009 mg/dL and 2,221 mg/dL | total sera IgG immune response, treated groups normalized against the empty groups (total IgG; dairy cows, 3 animals per construct, 28-day test period, FIG. 9): detectable immune response in at least one of the treated animals | PDI ([7]; LNP polydispersity, mRNA LNPs of Table 18): 0.130 | Z-avg. ([7]; LNP size, mRNA LNPs of Table 18): 68.06 nm·days | PDI ([7]; mRNA LNPs, Example 6): 0.1705 | Z-avg. ([7]; mRNA LNPs, Example 6): 96.66 nm·days | OVA-specific IgG, Absorbance (OD450) (ovalbumin (OVA); IM injection, Day 0, dairy cows): 0.842 OD450 and 0.938 OD450 and 0.308 OD450 | OVA-specific IgG, Absorbance (OD450) (ovalbumin (OVA); IM injection, Day 14, dairy cows): 1.653 OD450 and 1.048 OD450 and 0.513 OD450 | OVA-specific IgG, Absorbance (OD450) (ovalbumin (OVA); IM injection, Day 21, dairy cows): 1.23 OD450 and 1.261 OD450 and 0.443 OD450 | OVA-specific IgG, Absorbance (OD450) (ovalbumin (OVA); IM injection, Day 28, dairy cows): 1.097 OD450 and 0.999 OD450 and 0.465 OD450 | OVA-specific IgG, Absorbance (OD450) (ovalbumin (OVA); SQ injection, Day 0, dairy cows): 1.394 OD450 and 1.327 OD450 and 3.178 OD450 | OVA-specific IgG, Absorbance (OD450) (ovalbumin (OVA); SQ injection, Day 14, dairy cows): 1.287 OD450 and 1.175 OD450 and 2.478 OD450 | OVA-specific IgG, Absorbance (OD450) (ovalbumin (OVA); SQ injection, Day 21, dairy cows): 1.504 OD450 and 1.277 OD450 and 1.985 OD450 | OVA-specific IgG, Absorbance (OD450) (ovalbumin (OVA); SQ injection, Day 28, dairy cows): 1.368 OD450 and 1.066 OD450 and 1.691 OD450 | OVA-specific IgG response, intramuscular as compared to subcutaneous injection (ovalbumin (OVA); dairy cows, FIG. 10): ~4 fold
